Reference: ChEMBL document CHEMBL1201862, “PubChem BioAssay data set” (2004)
The source made the active and inactive calls.

Columns and labels:
HEK293 [1] = test: cells; type: functional, cell-based; settings: Homo sapiens
HEK293 [2] = test: cells; type: functional, cell-based; settings: Homo sapiens; remark: listed apart in the source
[3] = target: Nucleotide-binding oligomerization domain-containing protein 2 (Homo sapiens, UniProt Q9HC29); test: NOD2 signaling inhibitors, cell-based, luminescence, uHTS, HEK293 (AID 1566); type: functional
Chain of Nucleotide-binding oligomerization domain-containing protein 2 (Q9HC29 whole entry, the tested form may be a part): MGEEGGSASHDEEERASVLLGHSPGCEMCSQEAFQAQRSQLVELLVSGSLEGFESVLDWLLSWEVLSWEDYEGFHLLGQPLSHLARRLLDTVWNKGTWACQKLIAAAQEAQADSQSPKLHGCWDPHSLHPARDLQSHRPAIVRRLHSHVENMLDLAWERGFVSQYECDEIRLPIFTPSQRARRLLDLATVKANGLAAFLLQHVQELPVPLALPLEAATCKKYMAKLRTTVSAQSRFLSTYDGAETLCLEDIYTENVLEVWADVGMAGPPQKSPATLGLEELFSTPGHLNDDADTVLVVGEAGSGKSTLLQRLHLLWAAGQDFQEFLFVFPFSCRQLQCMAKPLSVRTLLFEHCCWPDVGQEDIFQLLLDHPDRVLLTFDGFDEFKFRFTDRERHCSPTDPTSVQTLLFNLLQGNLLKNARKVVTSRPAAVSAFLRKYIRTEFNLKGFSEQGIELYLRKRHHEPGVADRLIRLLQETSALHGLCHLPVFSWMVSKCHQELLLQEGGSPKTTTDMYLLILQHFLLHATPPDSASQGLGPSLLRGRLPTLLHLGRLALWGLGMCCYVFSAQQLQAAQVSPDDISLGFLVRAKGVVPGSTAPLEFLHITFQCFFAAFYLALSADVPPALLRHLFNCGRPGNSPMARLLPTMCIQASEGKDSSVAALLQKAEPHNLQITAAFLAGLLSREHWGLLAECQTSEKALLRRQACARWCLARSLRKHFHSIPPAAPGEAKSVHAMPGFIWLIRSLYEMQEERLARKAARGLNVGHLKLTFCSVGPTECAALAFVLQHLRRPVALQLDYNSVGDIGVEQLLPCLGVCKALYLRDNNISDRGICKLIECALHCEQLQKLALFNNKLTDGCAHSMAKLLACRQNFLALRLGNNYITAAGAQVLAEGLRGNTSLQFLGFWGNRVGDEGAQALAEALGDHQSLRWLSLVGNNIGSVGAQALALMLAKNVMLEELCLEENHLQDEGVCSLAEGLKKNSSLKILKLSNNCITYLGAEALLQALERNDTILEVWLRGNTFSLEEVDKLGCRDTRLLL

HEK293 [4] = test: NOD1 signaling inhibitors, primary screen, cell-based, luminescence, uHTS (AID 1578); type: functional; settings: Homo sapiens
HEK293 [5] = test: NOD2 signaling inhibitors in MDP-stimulated cells, cell-based, uHTS, luminescence (AID 2001); type: functional; settings: Homo sapiens
HEK293 [6] = test: cells; type: functional, cell-based; settings: Homo sapiens; remark: listed apart in the source
[7] = target: T1, Type-1 angiotensin II receptor (Homo sapiens, UniProt P30556); test: AT1 receptor agonists, dose response, selectivity assay for APJ receptor agonist project, cell-based, uHTS hits (AID 488865); type: functional;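 note: beta-arrestin recruitment to AT1 measured by enzyme fragment complementation luminescence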
T1 sequence (P30556 whole entry): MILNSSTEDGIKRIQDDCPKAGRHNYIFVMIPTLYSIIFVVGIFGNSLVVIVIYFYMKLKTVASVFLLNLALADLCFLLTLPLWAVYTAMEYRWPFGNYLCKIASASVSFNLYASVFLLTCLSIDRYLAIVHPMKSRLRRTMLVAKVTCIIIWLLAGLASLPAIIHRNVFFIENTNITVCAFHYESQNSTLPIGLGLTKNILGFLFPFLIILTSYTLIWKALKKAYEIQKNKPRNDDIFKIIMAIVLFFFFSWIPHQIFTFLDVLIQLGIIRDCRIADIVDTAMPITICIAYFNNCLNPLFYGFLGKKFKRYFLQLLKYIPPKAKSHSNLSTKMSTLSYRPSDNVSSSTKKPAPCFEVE

[8] = target: Neurotensin receptor type 1 (Homo sapiens, UniProt P30989); type: functional;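 note: Image-based confirmatory dose-response assay measuring agonist activity at NTR1; NTR1-expressing U2OS osteosarcoma cells imaged for beta-arrestin GFP spot formation; agonist potency where compounds increase beta-arrestin recruitment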
Chain of Neurotensin receptor type 1 (P30989 whole entry): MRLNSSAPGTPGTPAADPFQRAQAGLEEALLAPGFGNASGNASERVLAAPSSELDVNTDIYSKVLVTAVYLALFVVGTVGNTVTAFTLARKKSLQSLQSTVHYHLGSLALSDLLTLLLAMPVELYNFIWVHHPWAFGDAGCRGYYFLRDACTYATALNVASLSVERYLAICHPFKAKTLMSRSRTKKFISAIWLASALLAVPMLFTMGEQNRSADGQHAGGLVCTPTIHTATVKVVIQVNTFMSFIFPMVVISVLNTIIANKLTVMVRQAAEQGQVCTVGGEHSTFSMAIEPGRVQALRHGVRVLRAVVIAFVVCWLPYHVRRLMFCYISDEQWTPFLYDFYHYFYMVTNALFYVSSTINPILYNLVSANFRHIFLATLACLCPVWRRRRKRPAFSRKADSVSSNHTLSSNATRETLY

[9] = target: Eukaryotic translation initiation factor 4H (Homo sapiens, UniProt Q15056); test: eIF4H inhibition in translation initiation, SAR follow-up (AID 435011); type: functional
[10] = target: Polyadenylate-binding protein 1 (Homo sapiens, UniProt P11940); test: PABP inhibition in translation initiation, SAR follow-up (AID 435018); type: functional
Chain of Polyadenylate-binding protein 1 (P11940 whole entry): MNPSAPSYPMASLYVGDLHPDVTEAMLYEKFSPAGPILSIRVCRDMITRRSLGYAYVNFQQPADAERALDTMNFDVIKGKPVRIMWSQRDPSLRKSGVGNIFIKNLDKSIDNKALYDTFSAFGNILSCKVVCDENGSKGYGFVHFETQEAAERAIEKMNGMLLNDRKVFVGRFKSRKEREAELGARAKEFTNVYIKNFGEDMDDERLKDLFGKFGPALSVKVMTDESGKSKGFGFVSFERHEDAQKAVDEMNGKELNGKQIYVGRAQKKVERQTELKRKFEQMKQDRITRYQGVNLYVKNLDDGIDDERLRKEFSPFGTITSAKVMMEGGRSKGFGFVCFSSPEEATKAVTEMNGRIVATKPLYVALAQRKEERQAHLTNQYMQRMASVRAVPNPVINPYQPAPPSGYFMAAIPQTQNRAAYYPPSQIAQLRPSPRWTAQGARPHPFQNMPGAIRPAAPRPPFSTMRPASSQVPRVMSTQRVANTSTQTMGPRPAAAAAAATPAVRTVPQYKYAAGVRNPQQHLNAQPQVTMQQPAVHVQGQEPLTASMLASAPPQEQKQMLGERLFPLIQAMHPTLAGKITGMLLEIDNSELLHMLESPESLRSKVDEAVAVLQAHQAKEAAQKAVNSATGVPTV

[11] = target: Lysosomal acid glucosylceramidase (Homo sapiens, UniProt P04062); test: Dose response cell-based high throughput screening assay to identify enhancers of beta-glucosidase activity. [Related pubchem assays: 784 ]; type: functional
Chain of Lysosomal acid glucosylceramidase (P04062 whole entry): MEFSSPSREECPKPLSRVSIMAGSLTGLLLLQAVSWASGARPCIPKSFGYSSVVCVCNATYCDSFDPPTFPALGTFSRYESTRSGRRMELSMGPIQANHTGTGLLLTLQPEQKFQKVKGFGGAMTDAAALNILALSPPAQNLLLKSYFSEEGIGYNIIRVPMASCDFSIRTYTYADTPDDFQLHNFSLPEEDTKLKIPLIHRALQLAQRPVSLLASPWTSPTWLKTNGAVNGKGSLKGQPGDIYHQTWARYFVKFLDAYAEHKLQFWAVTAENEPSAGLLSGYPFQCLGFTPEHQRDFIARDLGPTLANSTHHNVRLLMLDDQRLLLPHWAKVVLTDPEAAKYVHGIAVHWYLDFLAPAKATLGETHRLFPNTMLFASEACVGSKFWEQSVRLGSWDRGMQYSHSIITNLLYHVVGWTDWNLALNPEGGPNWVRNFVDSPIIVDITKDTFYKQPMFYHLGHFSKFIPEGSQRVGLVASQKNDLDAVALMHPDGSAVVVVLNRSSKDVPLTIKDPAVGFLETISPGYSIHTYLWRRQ

[12] = target: T2, Alkaline phosphatase, tissue-nonspecific isozyme (Homo sapiens, UniProt P05186); test: human TNAP enzyme inhibitors, SAR follow-up, biochemical, luminescent, dose response (AID 1056)
T2 sequence (P05186 whole entry): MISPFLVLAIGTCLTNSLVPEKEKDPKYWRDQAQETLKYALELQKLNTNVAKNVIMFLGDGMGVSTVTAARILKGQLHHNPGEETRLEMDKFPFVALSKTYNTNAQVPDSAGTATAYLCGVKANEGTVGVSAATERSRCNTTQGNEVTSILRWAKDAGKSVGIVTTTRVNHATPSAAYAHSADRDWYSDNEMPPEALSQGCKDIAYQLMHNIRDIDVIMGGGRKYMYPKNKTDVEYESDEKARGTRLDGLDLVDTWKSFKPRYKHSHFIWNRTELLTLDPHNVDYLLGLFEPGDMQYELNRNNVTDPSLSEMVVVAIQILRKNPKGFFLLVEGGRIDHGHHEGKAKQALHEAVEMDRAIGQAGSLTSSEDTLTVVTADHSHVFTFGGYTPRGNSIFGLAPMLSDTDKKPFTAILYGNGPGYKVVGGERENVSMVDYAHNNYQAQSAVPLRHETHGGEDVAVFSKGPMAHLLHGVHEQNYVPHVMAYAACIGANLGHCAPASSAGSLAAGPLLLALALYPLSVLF

[13] = target: Glyceraldehyde-3-phosphate dehydrogenase (Homo sapiens, UniProt P04406)
Chain of Glyceraldehyde-3-phosphate dehydrogenase (P04406 whole entry): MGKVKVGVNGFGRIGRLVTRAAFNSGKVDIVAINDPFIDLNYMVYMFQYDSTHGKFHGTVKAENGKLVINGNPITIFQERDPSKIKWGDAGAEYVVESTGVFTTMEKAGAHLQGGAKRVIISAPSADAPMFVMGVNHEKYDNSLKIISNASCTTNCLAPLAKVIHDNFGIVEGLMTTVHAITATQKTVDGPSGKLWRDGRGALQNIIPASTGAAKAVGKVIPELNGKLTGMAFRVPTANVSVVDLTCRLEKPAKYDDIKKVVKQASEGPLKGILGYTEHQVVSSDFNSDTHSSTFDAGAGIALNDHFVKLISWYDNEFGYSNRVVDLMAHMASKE

[14] = target: Alkaline phosphatase, placental type (Homo sapiens, UniProt P05187); test: PLAP enzyme inhibitors, confirmation, biochemical, luminescence (AID 1512); type: functional
[15] = A Cell Based Secondary Assay To Explore Cytotoxicity of Compounds that Sensitize Mycobacterium Tuberculosis to Beta-Lactam Antibiotics.; type: functional
[16] = HEp-2 cell cytotoxicity, dose response, cytotoxicity control for RSV inhibitor project, HTS (AID 2410); type: functional; settings: human respiratory syncytial virus
[17] = target: Lysine-specific demethylase 4C (Homo sapiens, UniProt Q9H3R0); test: GASC-1 (JMJD2C) histone demethylase inhibitors, dose response, biochemical, DELFIA europium, cherry-picked samples (AID 488835); type: functional
Chain of Lysine-specific demethylase 4C (Q9H3R0 whole entry): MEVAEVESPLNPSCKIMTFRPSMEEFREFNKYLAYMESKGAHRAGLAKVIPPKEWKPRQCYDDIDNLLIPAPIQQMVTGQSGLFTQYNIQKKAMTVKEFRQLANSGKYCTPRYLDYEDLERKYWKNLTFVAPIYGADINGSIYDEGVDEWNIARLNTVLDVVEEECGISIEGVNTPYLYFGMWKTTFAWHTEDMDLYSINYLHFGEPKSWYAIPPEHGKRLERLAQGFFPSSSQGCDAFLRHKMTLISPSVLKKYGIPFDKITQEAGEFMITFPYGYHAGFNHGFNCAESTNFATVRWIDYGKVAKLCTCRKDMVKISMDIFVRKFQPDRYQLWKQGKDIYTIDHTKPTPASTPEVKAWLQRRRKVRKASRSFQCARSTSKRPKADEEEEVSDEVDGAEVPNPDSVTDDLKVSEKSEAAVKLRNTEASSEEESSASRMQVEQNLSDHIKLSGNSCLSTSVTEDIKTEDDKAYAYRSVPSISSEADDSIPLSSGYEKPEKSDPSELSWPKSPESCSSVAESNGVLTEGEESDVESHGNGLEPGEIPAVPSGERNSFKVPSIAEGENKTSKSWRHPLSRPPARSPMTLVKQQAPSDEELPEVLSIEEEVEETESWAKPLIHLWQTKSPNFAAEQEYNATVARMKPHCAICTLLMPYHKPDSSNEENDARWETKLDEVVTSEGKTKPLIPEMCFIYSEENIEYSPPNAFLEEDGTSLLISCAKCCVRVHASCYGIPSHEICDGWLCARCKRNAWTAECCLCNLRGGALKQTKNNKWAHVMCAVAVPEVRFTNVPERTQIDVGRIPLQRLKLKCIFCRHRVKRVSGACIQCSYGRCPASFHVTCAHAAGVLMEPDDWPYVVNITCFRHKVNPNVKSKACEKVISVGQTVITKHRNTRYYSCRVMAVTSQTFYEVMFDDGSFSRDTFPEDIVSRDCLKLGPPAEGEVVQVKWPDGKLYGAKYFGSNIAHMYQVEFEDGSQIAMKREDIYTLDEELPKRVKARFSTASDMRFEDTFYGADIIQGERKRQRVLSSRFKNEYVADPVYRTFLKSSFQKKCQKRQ

[18] = target: T2, Alkaline phosphatase, tissue-nonspecific isozyme
SUMO-activating enzyme = SUMO-activating enzyme (Homo sapiens, UniProt Q9UBT2); test: SUMOylation inhibitor hit validation, confirmation, SUMOylation inhibitor project, biochemical, AlphaScreen (AID 2018); type: functional
[19] = cytotoxicity in MIN6 insulinoma cells, dose response, cytotoxicity control, cell-based, mouse insulinoma (AID 2122); type: functional;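 note: confirmatory high-throughput counterscreen run to flag cytotoxic compounds; mouse MIN-6 beta cells carrying an insulin promoter eGFP reporter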
[20] = inhibitors of intracellular T. cruzi replication, confirmation, NIH3T3 host cells, beta-gal luminescence (AID 2044); type: functional, cell-based;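 note: intracellular parasites grown in NIH/3T3 mouse fibroblasts as host cells; luminescent beta-galactosidase reporter signal from transgenic T. cruzi replicating inside host cells; inhibitors lower the luminescence signal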
Vero = test: host cell cytotoxicity of antiviral hits, dose response, cytotoxicity control for West Nile virus antiviral project, secondary assay (AID 1650); type: functional; settings: Chlorocebus sabaeus
[21] = cytotoxicity toward NIH3T3 fibroblasts, dose response, counter-screen, cell-based, ATP luminescence, mouse fibroblasts (AID 2010); type: functional;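 note: cells exposed to compound for about 90 hours before reading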
[22] = insulin promoter down-regulators in MIN6 cells, imaging, high-content screening, mouse beta cells (AID 1628); type: functional
Paired box protein Pax-8 = Paired box protein Pax-8 (Homo sapiens, UniProt Q06710); test: inhibitors of PAX8-driven TPO luciferase reporter, dose response, RMG-I cells, cherry-pick (AID 687027); type: functional, cell-based;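 note: luciferase reporter driven by Pax8 target thyroperoxidase promoter measured by SteadyGlo luminescence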
Chain of Paired box protein Pax-8 (Q06710 whole entry): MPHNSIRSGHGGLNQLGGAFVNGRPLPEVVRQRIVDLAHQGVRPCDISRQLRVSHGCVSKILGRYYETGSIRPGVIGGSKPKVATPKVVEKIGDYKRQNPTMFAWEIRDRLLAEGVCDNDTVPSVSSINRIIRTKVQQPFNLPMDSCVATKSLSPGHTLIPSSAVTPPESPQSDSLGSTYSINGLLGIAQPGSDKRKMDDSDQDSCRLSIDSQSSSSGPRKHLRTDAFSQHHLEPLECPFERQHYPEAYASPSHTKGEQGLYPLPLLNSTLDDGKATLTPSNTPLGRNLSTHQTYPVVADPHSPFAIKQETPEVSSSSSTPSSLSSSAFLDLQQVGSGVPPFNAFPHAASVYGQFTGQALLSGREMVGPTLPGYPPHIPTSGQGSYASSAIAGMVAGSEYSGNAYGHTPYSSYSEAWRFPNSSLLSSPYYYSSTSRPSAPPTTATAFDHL

Which results are given for `Brc1ccc2ncnc(NCc3ccco3)c2c1`?
IC50 (HEK293 [1]): > 20 µM (inactive); IC50 (HEK293 [2]): 4.57 µM (active); EC50 [3]: 6.5 µM (active); EC50 (HEK293 [4]): 3.41 µM (active); IC50 (HEK293 [5]): 5.54 µM (active); IC50 (HEK293 [6]): > 20 µM (inactive)

For `CCC(C)NC(=O)CSC1=Nc2ccccc2C2=NC(CC(=O)NCc3ccccc3)C(=O)N12` (stereo not drawn), which EC50 [7] is on record?
Its EC50 is > 100 µM (inactive).

For `O=C1c2ccc(Cl)cc2S(=O)(=O)c2cccc(C(=O)N3CCC(Cc4ccccc4)CC3)c21`, which EC50 [8] is on record?
Its EC50 is 16.6 µM (active).

With `Cc1ccccc1NC(=O)C1CCN(C(=O)c2cccs2)CC1` as the compound, how does the IC50 [9] read?
The IC50 was > 100 µM (inactive).

And the IC50 [10]?
Its IC50 is > 100 µM (inactive).

For `CCCCN(C)C(=O)CCCCn1c(=O)[nH]c2cc(OCC)c(OCC)cc2c1=O`, which EC50 [11] is on record?
Its EC50 is > 10 µM (not active).

What does the source list for `O=C(O)c1cc(-c2ccc(Cl)cc2Cl)[nH]n1`?
IC50 [12]: 0.392 µM (active); IC50 [13]: > 100 µM (not active); IC50 [14]: > 100 µM (inactive)

With `Cc1cc(C=C2C(=O)NC(=S)NC2=O)c(C)n1-c1ccc2c(c1)OCO2` as the compound, how does the CC50 [15] read?
Its CC50 is > 40 µM (active).

What about the CC50 [16] of the same compound?
Its CC50 is 14.3 µM (active).

And the AC50 [17]?
Its AC50 is 9.41 µM (active).

For `Cc1cccc(-n2c(CNC(=O)c3cccc([N+](=O)[O-])c3C)n[nH]c2=S)c1`, which EC50 [18] is on record?
Its EC50 is > 100 µM (not active).

Which EC50 [7] does the source give for `Cc1ccc(/C=N/NC(=O)CSc2nnc(-c3ccc(Cl)cc3)n2-c2ccccc2)o1` here?
The EC50 was > 100 µM (inactive).

With `O=C(Nc1ccc(N2C(=O)C3C4C=CC(C4)C3C2=O)cc1)Nc1cccnc1` (stereo not drawn) as the compound, how does the IC50 (SUMO-activating enzyme) read?
Its IC50 is > 100 µM (inactive).

What does the source list for `O=C(CSc1ccc(-c2ccco2)nn1)NCCc1ccccc1`?
IC50 [9]: 95.2 µM (active); IC50 [10]: > 100 µM (inactive)

Which results are given for `O=c1cc(C(Cl)(Cl)Cl)oc2c1ccc1ccccc12`?
IC50 [19]: 1.28 µM (active); EC50 [20]: 0.893 µM (active); CC50 (Vero): 5.35 µM (active); EC50 [21]: 3.32 µM (active); IC50 [22]: 1.78 µM (active); AC50 (Paired box protein Pax-8): 2.66 µM (active)
